Results as given in ChEMBL document CHEMBL5375952, “Discovery of Novel 8-Hydroxyquinoline Derivatives with Potent In Vitro and In Vivo Antifungal Activity” (J Med Chem, 2023).
Values after ≈ are worked out from the molar mass of the structure shown. Active and inactive are the calls of the source. The rule behind the calls is not given here.

What was measured:
Candida parapsilosis [1] = test: Antifungal activity against Candida parapsilosis 107 assessed as fungal growth inhibition incubated for 48 hrs by broth microdilution method; format: functional; conditions: Lodderomyces parapsilosis
Aspergillus fumigatus = test: Antifungal activity against Aspergillus fumigatus 023-12 assessed as fungal growth inhibition incubated for 48 hrs by broth microdilution method; format: functional
Pichia kudriavzevii = test: Antifungal activity against Candida krusei 471 assessed as fungal growth inhibition incubated for 48 hrs by broth microdilution method; format: functional
Candida parapsilosis [2] = test: Antifungal activity against Candida parapsilosis ATCC22019 assessed as fungal growth inhibition incubated for 48 hrs by broth microdilution method; format: functional; conditions: Lodderomyces parapsilosis
Cryptococcus neoformans [3] = test: Antifungal activity against Cryptococcus neoformans HN15 assessed as fungal growth inhibition incubated for 48 hrs by broth microdilution method; format: functional
Cryptococcus neoformans [4] = test: Antifungal activity against Cryptococcus neoformans BJ3 assessed as fungal growth inhibition incubated for 48 hrs by broth microdilution method; format: functional
Candida albicans [5] = test: Antifungal activity against FLC-resistant Candida albicans 304103 assessed as fungal growth inhibition incubated for 48 hrs by broth microdilution method; format: functional
Candida albicans [6] = test: Antifungal activity against FLC-resistant Candida albicans 8 assessed as fungal growth inhibition incubated for 48 hrs by broth microdilution method; format: functional
Candida albicans [7] = test: Antifungal activity against FLC-resistant Candida albicans 10 assessed as fungal growth inhibition incubated for 48 hrs by broth microdilution method; format: functional
Candida albicans [8] = test: Antifungal activity against FLC-resistant Candida albicans 11 assessed as fungal growth inhibition incubated for 48 hrs by broth microdilution method; format: functional
Candida albicans [9] = test: Antifungal activity against FLC-resistant Candida albicans 12 assessed as fungal growth inhibition incubated for 48 hrs by broth microdilution method; format: functional
Candida albicans [10] = test: Antifungal activity against FLC-resistant Candida albicans 14 assessed as fungal growth inhibition incubated for 48 hrs by broth microdilution method; format: functional
Candida albicans [11] = test: Antifungal activity against FLC-resistant Candida albicans 17 assessed as fungal growth inhibition incubated for 48 hrs by broth microdilution method; format: functional
Candida albicans [12] = test: Antifungal activity against FLC-resistant Candida albicans 100 assessed as fungal growth inhibition incubated for 48 hrs by broth microdilution method; format: functional
Candida albicans [13] = test: Antifungal activity against FLC-resistant Candida albicans 241 assessed as fungal growth inhibition incubated for 48 hrs by broth microdilution method; format: functional
Candida albicans [14] = test: Antifungal activity against FLC-resistant Candida albicans 249 assessed as fungal growth inhibition incubated for 48 hrs by broth microdilution method; format: functional
Candida albicans [15] = test: Antifungal activity against FLC-resistant Candida albicans 305 assessed as fungal growth inhibition incubated for 48 hrs by broth microdilution method; format: functional
Candida albicans [16] = test: Antifungal activity against FLC-resistant Candida albicans 379 assessed as fungal growth inhibition incubated for 48 hrs by broth microdilution method; format: functional
Candida albicans [17] = test: Antifungal activity against FLC-resistant Candida albicans 385 assessed as fungal growth inhibition incubated for 48 hrs by broth microdilution method; format: functional
Candida albicans [18] = test: Antifungal activity against FLC-resistant Candida albicans 395 assessed as fungal growth inhibition incubated for 48 hrs by broth microdilution method; format: functional
Candida albicans [19] = test: Antifungal activity against FLC-resistant Candida albicans 538 assessed as fungal growth inhibition incubated for 48 hrs by broth microdilution method; format: functional
Candida albicans [20] = test: Antifungal activity against FLC-resistant Candida albicans 540 assessed as fungal growth inhibition incubated for 48 hrs by broth microdilution method; format: functional
Candida albicans [21] = test: Antifungal activity against FLC-resistant Candida albicans 646 assessed as fungal growth inhibition incubated for 48 hrs by broth microdilution method; format: functional
Candida albicans [22] = test: Antifungal activity against FLC-resistant Candida albicans 819 assessed as fungal growth inhibition incubated for 48 hrs by broth microdilution method; format: functional
Candida albicans [23] = test: Antifungal activity against FLC-resistant Candida albicans 953 assessed as fungal growth inhibition incubated for 48 hrs by broth microdilution method; format: functional
Candida albicans [24] = test: Antifungal activity against FLC-resistant Candida albicans 1221 assessed as fungal growth inhibition incubated for 48 hrs by broth microdilution method; format: functional
Candida albicans [25] = test: Antifungal activity against FLC-resistant Candida albicans 5740 assessed as fungal growth inhibition incubated for 48 hrs by broth microdilution method; format: functional
Candida albicans [26] = test: Antifungal activity against FLC-resistant Candida albicans 64548 assessed as fungal growth inhibition incubated for 48 hrs by broth microdilution method; format: functional
Candida albicans [27] = test: Antifungal activity against FLC-resistant Candida albicans 512644 assessed as fungal growth inhibition incubated for 48 hrs by broth microdilution method; format: functional
Candida albicans [28] = test: Antifungal activity against FLC-resistant Candida albicans 512681 assessed as fungal growth inhibition incubated for 48 hrs by broth microdilution method; format: functional
Candida albicans [29] = test: Antifungal activity against FLC-resistant Candida albicans 605141 assessed as fungal growth inhibition incubated for 48 hrs by broth microdilution method; format: functional
Candida albicans [30] = test: Antifungal activity against FLC-resistant Candida albicans 710419 assessed as fungal growth inhibition incubated for 48 hrs by broth microdilution method; format: functional
Candida albicans [31] = test: Antifungal activity against FLC-resistant Candida albicans 710452 assessed as fungal growth inhibition incubated for 48 hrs by broth microdilution method; format: functional
Candida albicans [32] = test: Antifungal activity against FLC-resistant Candida albicans 710506 assessed as fungal growth inhibition incubated for 48 hrs by broth microdilution method; format: functional
Candida albicans [33] = test: Antifungal activity against FLC-resistant Candida albicans 710513 assessed as fungal growth inhibition incubated for 48 hrs by broth microdilution method; format: functional
Candida albicans [34] = test: Antifungal activity against FLC-resistant Candida albicans 710554 assessed as fungal growth inhibition incubated for 48 hrs by broth microdilution method; format: functional
Candida albicans [35] = test: Inhibition of mature biofilm formation of Candida albicans SC5314 upto 16 ug/ml incubated for 24 hrs by XTT assay; format: functional, organism-based; conditions: dose <= 16.0 µg/ml
[36] = Cytotoxicity against HUVEC cells assessed as cell growth inhibition incubated for 24 hrs by CCK8 assay; format: toxicity, cell-based; conditions: human

`OC(Cn1cncn1)(Cn1cncn1)c1ccc(F)cc1F` [FLUCONAZOLE] showed an MIC (Candida parapsilosis [1]) of over 64 µg/mL, an MIC (Aspergillus fumigatus) of over 64 µg/mL and an MIC (Pichia kudriavzevii) of over 64 µg/mL. The MIC (Candida parapsilosis [2]) was 0.5 µg/mL (≈ 1.63 µM), the MIC (Cryptococcus neoformans [3]) was 4 µg/mL (≈ 13.1 µM) and the MIC (Cryptococcus neoformans [4]) was 16 µg/mL (≈ 52.2 µM). It also gave an MIC (Candida albicans [5]) of 32 µg/mL (≈ 104 µM), an MIC (Candida albicans [6]) of 16 µg/mL (≈ 52.2 µM) and an MIC (Candida albicans [7]) of 32 µg/mL (≈ 104 µM). The MIC (Candida albicans [8]) was 32 µg/mL (≈ 104 µM), the MIC (Candida albicans [9]) was 32 µg/mL (≈ 104 µM) and the MIC (Candida albicans [10]) was 32 µg/mL (≈ 104 µM). For the same compound, the MIC (Candida albicans [11]) was 32 µg/mL (≈ 104 µM), the MIC (Candida albicans [12]) was 16 µg/mL (≈ 52.2 µM) and the MIC (Candida albicans [13]) was over 64 µg/mL. It also gave an MIC (Candida albicans [14]) of 32 µg/mL (≈ 104 µM), an MIC (Candida albicans [15]) of over 64 µg/mL and an MIC (Candida albicans [16]) of over 64 µg/mL. It also gave an MIC (Candida albicans [17]) of over 64 µg/mL, an MIC (Candida albicans [18]) of 32 µg/mL (≈ 104 µM) and an MIC (Candida albicans [19]) of over 64 µg/mL. For the same compound, the MIC (Candida albicans [20]) was over 64 µg/mL, the MIC (Candida albicans [21]) was over 64 µg/mL and the MIC (Candida albicans [22]) was 32 µg/mL (≈ 104 µM). For the same compound, the MIC (Candida albicans [23]) was over 64 µg/mL, the MIC (Candida albicans [24]) was over 64 µg/mL and the MIC (Candida albicans [25]) was 32 µg/mL (≈ 104 µM). For the same compound, the MIC (Candida albicans [26]) was over 64 µg/mL, the MIC (Candida albicans [27]) was over 64 µg/mL and the MIC (Candida albicans [28]) was over 64 µg/mL. It also gave an MIC (Candida albicans [29]) of over 64 µg/mL, an MIC (Candida albicans [30]) of over 64 µg/mL and an MIC (Candida albicans [31]) of over 64 µg/mL. The MIC (Candida albicans [32]) was over 64 µg/mL, the MIC (Candida albicans [33]) was over 64 µg/mL and the MIC (Candida albicans [34]) was over 64 µg/mL. For the same compound, the inhibition (Candida albicans [35]) was “inactive” and the IC50 at 24 h [36] was 9.18 µg/mL (≈ 30 µM).
